{"source": "paper PMC4381330", "about": "“Identification of a novel selective agonist of PPARγ with no promotion of adipogenesis and less inhibition of osteoblastogenesis” (Scientific Reports, 2015)", "key": {"3T3-L1 preadipocytes": {"test_system": "3T3-L1 preadipocytes", "assay": "Adipogenic differentiation of 3T3-L1 preadipocytes (Oil red O, triglyceride content)", "assay_type": "cell-based, mouse", "description": "(§1) 3T3-L1 preadipocytes were grown to confluency in DMEM containing 10% CS. At 2 days post-confluency, the cells were stimulated with differentiation medium (DMEM containing 10% FBS, 10 μg/mL insulin, 1 μM dexamethasone, and 0.5 mM IBMX) for 48 h. Then, the cells were exposed in post-differentiation-maintaining medium (DMEM containing 10% FBS and 10 μg/mL insulin) for a further 48 h, which was replaced with expansion medium (DMEM containing 10% FBS) every 2 days after then. Compounds were added to the post-differentiation and expansion medium. At day 4, the cells were harvested for RNA preparation. At Day 8, the cells were fixed with 10% formaldehyde and stained with Oil red O solution. After washing with water, photos were taken. Solubilized dye was quantified at 550 nm. In addition, total triglyceride of the cells was measured by a total TG measurement kit (Applygene, China). Experiments were performed at least three times."}, "[1]": {"test_system": "PPARγ target genes in differentiating 3T3-L1 cells", "assay": "Expression of adipogenesis-related and PPARγ-responsive genes in differentiating 3T3-L1 adipocytes (qPCR)", "assay_type": "cell-based, mouse", "description": "as §1\n(§2) Total RNA was extracted using TRIzol reagent (Invitrogen). First-strand cDNA was synthesized from the total RNA using a reverse transcriptional kit (TransGen). Quantitative PCR with SYBR Green (Roche Diagnostics, Lewes, UK) was performed on a Stratagene MX3000P real-time PCR system (Agilent). Melting curves were obtained, and the specificity of PCR products was checked on agarose gels. Relative mRNA expression was determined by the ΔΔCt method and normalized to GAPDH mRNA levels."}, "MC3T3-E1 preosteoblasts": {"test_system": "MC3T3-E1 preosteoblasts", "assay": "Osteoblastic differentiation of MC3T3-E1 cells (Alizarin red S, Alp activity)", "assay_type": "cell-based", "conditions": "F12016 1, 10, 30 μM", "description": "(§3) MC3T3-E1 cells were cultured in α-MEM to confluency in 24-well plates and then cultured in differentiation medium (α-MEM supplemented with 200 μM ascorbic acid and 10 mM β-glycerophosphate) for 7, 14, and 21 days, which was replaced every 3 days. The cells were treated with DMSO, rosiglitazone, or F12016 at the start of differentiation. At day 8, 15 and 22, total RNA was isolated, and real-time PCR was performed as described below.\nMature osteoblasts were stained with Alizarin red S and Alp activity were measured at day 22. In brief, cells were fixed with 75% ethanol and stained with 40 mM Alizarin red S solution (pH 4.1–4.3) for 10 min. For Alp assay, the cells were harvested and sonicated on ice with two 30s-pulses. Supernatant of lysate was incubated with isopyknic 1.0 mg/ml pNPP (Sigma–aldrich) solution (1 M diethanolamine buffer, 0.5 mM magnesium chloride) for 30 min at 37°C. The reaction was measured at 405 nm. Relative ALP activity was normalized to the protein concentration."}, "[2]": {"test_system": "osteoblast marker genes in MC3T3-E1 cells", "assay": "Expression of osteoblast marker genes in MC3T3-E1 cells (qPCR)", "assay_type": "cell-based", "description": "as §3, §2"}, "PPARγ LBD mutants": {"test_system": "PPARγ LBD mutants", "assay_type": "cell-based, human", "conditions": "compared with wild-type PPARγ LBD", "description": "All chemicals were purchased from Sigma-Aldrich (St. Louis, MO, USA). All medium and serum were obtained from Gibco (Invitrogen). […] Mutations in pBIND-PPARγ-LBD were created by site-directed mutagenesis using the Fast Mutagenesis System (TransGen Biotech, Beijing, China).\nThe determination of nuclear receptor activation was performed as previously. Briefly, HEK293T cells were transfected with GAL4-pGL4-luc reporter plasmid and pBIND-PPARγ-LBD expression plasmid using Lipofectamine 2000 (Invitrogen) for 6 h before treatment with compounds for 20–24 h. Activity was determined by the Luciferase Assay System (Promega)."}, "[3]": {"test_system": "osteoblast marker genes in MC3T3-E1 cells", "parameters": "method as in PMID 21892191", "conditions": "rosiglitazone 10 μM; cited from earlier work"}, "diabetic KKAy mice": {"test_system": "diabetic KKAy mice", "assay": "Diabetic KKAy mice, 21 days treatment (fasting blood glucose, OGTT, ITT, body weight)", "conditions": "after 21 days, F12016 75 mg/kg, rosiglitazone 5 mg/kg", "protocol": "Fasting blood glucose was measured with Onetoch Ultra Teststrip (Johnson & Johnson) at day 0, 3, 7, 14, 21, and body weight were monitored during these days.\nAfter 14 days of treatment, oral glucose tolerance test (OGTT) was performed. Mice were fasted for 6 h with free access to water. 2 g/kg of glucose was given by gavage and blood glucose was measured at 0, 30, 60, 90, and 120 min.\nAfter 21 days of feeding, insulin tolerance test (ITT) was carried out. Mice were fasted for 4 h before being injected 1 U/kg of recombinant human insulin (Novo Nordisk) subcutaneously, and blood glucose was measured at 0, 40, 90, and 120 min after insulin injection."}}}
{"smiles": "O=C(Nc1ccccc1)c1cc([N+](=O)[O-])ccc1Cl", "note": "[GW9662, reference compound]", "values": [{"measurement": "effect of co-incubation on rosiglitazone-induced adipogenesis", "setting": "3T3-L1 preadipocytes; GW9662 20 μM plus RGZ 10 μM", "result": "weakened"}]}
{"smiles": "CN(CCOc1ccc(CC2SC(=O)NC2=O)cc1)c1ccccn1", "note": "(centres unmarked) [rosiglitazone, reference compound]", "values": [{"measurement": "intracellular triglyceride (TG) content", "setting": "3T3-L1 preadipocytes; 6 days of stimulation", "result": "significant increase"}, {"measurement": "lipid accumulation / intracellular lipid droplets (Oil red O staining)", "setting": "3T3-L1 preadipocytes; RGZ 0.1, 1, 10 μM, F12016 1, 10, 30 μM", "result": "significant increase in Oil red O staining"}, {"measurement": "mRNA levels of 11β-HSD1", "setting": "[1]", "result": "similarly decreased the mRNA levels"}, {"measurement": "expression of fatty acid synthase (Fasn)", "setting": "[1]; both compounds to a similar extent", "result": "upregulated expression"}, {"measurement": "alkaline phosphatase (Alp) activity", "setting": "MC3T3-E1 preosteoblasts", "result": "significantly reduced alkaline phosphatase (Alp) activity"}, {"measurement": "mineralization (Alizarin Red S)", "setting": "MC3T3-E1 preosteoblasts", "result": "impaired calcification of bone cells"}, {"measurement": "expression of Alp and Col1", "setting": "[2]; 7 days", "result": "reduced expressions"}, {"measurement": "expression of RANKL", "setting": "[2]; 7 days, rosiglitazone 1 μM, compared with control", "result": "not significantly changed"}, {"measurement": "expression of Ibsp and Bglap", "setting": "[2]; Ibsp 14 days, Bglap 21 days", "result": "reduced expressions"}, {"measurement": "activation of S289A, H323A, H449A and Y473A mutants", "setting": "PPARγ LBD mutants", "result": "nearly abolished"}, {"measurement": "expression of RANKL in differentiated MC3T3-E1 cells", "setting": "[3]", "result": "reduced expression of RANKL"}, {"measurement": "blood glucose after insulin injection (ITT)", "setting": "diabetic KKAy mice; insulin 1 IU/kg", "result": "significantly reduced blood glucose"}, {"measurement": "average body weight", "setting": "diabetic KKAy mice; vs vehicle", "result": "showed weight gain in a certain extent"}]}
